In patent publication US8410078B2, “Composition and methods to treat cardiac diseases” (University of Connecticut, priority 2006, dated 2013):

Tests used:
[1] = test system: WT mice; assay: Survival after LAD ligation-induced myocardial infarction in WT mice; type: in vivo, mouse; settings: treated from two days post-infarction, up to 60 days post-infarction
Procedure: Ligation of LAD in anesthetized mice was carried out using procedures similar to those previously described in the art. Adult WT (BL6) or P2X4R Tg mice 12-14 weeks old of either gender were anesthetized with ketamine (100 mg/kg) and xylazine (5 mg/kg) intraperitoneally. Under a dissecting microscope, mice were placed in a supine position on a heated pad to keep body temperature at 37° C. After endotracheal intubation, the cannula was connected to a small rodent ventilator (Hugo Sachs-Harvard Apparatus, Minivent Type 845, Holliston, Mass.) on room air with a stroke volume of 0.3 ml at a rate of 160 per min. A left intercostals thoracotomy was performed and myocardial infarction was produced by ligating the left anterior descending coronary artery with an 8-0 nylon suture within 2 mm below the edge of left atrium near the origin of the artery. The ligation was deemed successful when the left anterior wall turned pale and the ligation was aimed to induce a 30-40% infarct size. Animals were used according to the approved protocols of the Institutional Review Board at University of Connecticut School of Medicine.
The LAD ligation-mediated ischemic cardiomyopathy was induced in WT mice. (FIG. 26) At two days post-infarction, 15 mice were treated with […] and 19 mice were treated with NS (normal saline as the vehicle control). […]

[2] = test system: intact WT mouse hearts; assay: Cardiac function in intact WT mouse heart preparation
Procedure: Following injection of heparin via tail vein (500 U/kg, iv) and anesthetization with nembutal (125 mg/kg for rats and 150 mg/kg for mice, ip) intraperitoneally, heart with all major vessels and lungs attached were excised. The aorta was then cannulated with a 20-gauge catheter, positioned about 2 mm above the coronary ostia. For the Langendorff method, a water-filled latex balloon (size #3) was inserted into the lumen of the left ventricle via the left atrium. The distal end of the balloon attached catheter was connected to a pressure transducer for measurement of intraventricular pressure and ±dP/dt. The balloon was inflated to a constantly held diastolic pressure of 5-7 mmHg. […]
For the working heart model, a column of KHS buffer produced a constant hydrostatic pressure of 65 mmHg (for rat) or 55 mmHg (for mice). […] Aortic flow was the amount of perfusate exiting the aortic cannula measured in […]. […]
The pressure recordings were channeled from amplifiers which had been pre-calibrated by a transducer simulator/calibrator (Ken Scientific Corp., Litchfield, Conn.). […] Data were analyzed by computer software (WorkBench for Windows+, Kent Scientific Corp) designed for an IBM-compatible computer (Dell). […] Data obtained with and without drug were analyzed by paired t test for possible statistically significant differences. […]

Nc1nc(Cl)nc2c1ncn2C1[C@H]2C[C@@]2(COP(=O)(O)O)[C@@H](O)[C@H]1O (stereo partly drawn) [MRS2339, (1′S,2′R,3′S,4′R,5′S)-4-(6-amino-2-chloro-9H-purin-9-yl)-1-[phosphoryloxymethyl]bicyclo[3.1.0]hexane-2,3-diol]
Post-infarction survival [1]: greater than 95%
+dP/dt [2]: increased
